Values after ≈ are worked out from the molar mass of the structure shown. Active and inactive are the calls of the source. No cut-off for these calls is given here.
Tests used:
Assay type in all cases: functional
Bacillus subtilis = assay: Antimicrobial activity against Bacillus subtilis ATCC 6633 assessed as growth inhibition after 24 hr by NCCLS broth dilution method
Staphylococcus aureus = assay: Antimicrobial activity against Staphylococcus aureus ATCC 25923 assessed as growth inhibition after 24 hr by NCCLS broth dilution method
Escherichia coli = assay: Antimicrobial activity against Escherichia coli ATCC 25922 assessed as growth inhibition after 24 hr by NCCLS broth dilution method
Pseudomonas aeruginosa = assay: Antimicrobial activity against Pseudomonas aeruginosa ATCC 27853 assessed as growth inhibition after 24 hr by NCCLS broth dilution method

| Compound | MIC (Bacillus subtilis) | MIC (Bacillus subtilis; ATCC 6633, 24 h) [µg/mL] | MIC (Staphylococcus aureus) | MIC (Staphylococcus aureus; ATCC 25923, 24 h) [µg/mL] | MIC (Escherichia coli) | MIC (Escherichia coli; ATCC 25922, 24 h) [µg/mL] | MIC (Pseudomonas aeruginosa) | MIC (Pseudomonas aeruginosa; ATCC 27853, 24 h) [µg/mL] |
| --- | --- | --- | --- | --- | --- | --- | --- | --- |
| CN1CCN(c2cc3ncnc(Sc4nnc(-c5cccnc5)o4)c3cc2NC(=O)Nc2ccc(Cl)cc2)CC1 | inactive | 6.25 (≈ 10.9 µM) | inactive | 25 (≈ 43.5 µM) | inactive | 12.5 (≈ 21.8 µM) | inactive | 50 (≈ 87.1 µM) |
| CN1CCN(c2cc3ncnc(Sc4nnc(-c5cccnc5)o4)c3cc2NC(=S)Nc2cccc(Cl)c2)CC1 | inactive | 25 (≈ 42.4 µM) | inactive | 6.25 (≈ 10.6 µM) | inactive | 12.5 (≈ 21.2 µM) | inactive | 50 (≈ 84.7 µM) |
| CN1CCN(c2cc3ncnc(Sc4nnc(-c5cccnc5)o4)c3cc2NC(=S)Nc2ccc(Cl)cc2)CC1 | inactive | 12.5 (≈ 21.2 µM) | inactive | 25 (≈ 42.4 µM) | inactive | 50 (≈ 84.7 µM) | inactive | 50 (≈ 84.7 µM) |
| O=C(Nc1ccc2ncnc(Sc3nnc(-c4cccnc4)o3)c2c1)Nc1ccccc1Cl | inactive | 12.5 (≈ 26.3 µM) | inactive | 25 (≈ 52.5 µM) | inactive | 25 (≈ 52.5 µM) | inactive | 75 (≈ 158 µM) |
| COc1ccccc1NC(=S)Nc1ccc2ncnc(Sc3nnc(-c4cccnc4)o3)c2c1 | inactive | 25 (≈ 51.3 µM) | inactive | 12.5 (≈ 25.6 µM) | inactive | 25 (≈ 51.3 µM) | inactive | 50 (≈ 103 µM) |
| O=C(NCCc1ccccc1)Nc1ccc2ncnc(Sc3nnc(-c4cccnc4)o3)c2c1 | inactive | 50 (≈ 106 µM) | inactive | 12.5 (≈ 26.6 µM) | inactive | 50 (≈ 106 µM) | inactive | 75 (≈ 160 µM) |
| CN1CCN(c2cc3ncnc(Sc4nnc(-c5cccnc5)o4)c3cc2NC(=O)Nc2cccc(Cl)c2)CC1 | inactive | 12.5 (≈ 21.8 µM) | inactive | 6.25 (≈ 10.9 µM) | inactive | 50 (≈ 87.1 µM) | inactive | 25 (≈ 43.5 µM) |
| S=C(Nc1ccc2ncnc(Sc3nnc(-c4cccnc4)o3)c2c1)Nc1ccccc1Cl | inactive | 50 (≈ 102 µM) | inactive | 25 (≈ 50.8 µM) | inactive | 25 (≈ 50.8 µM) | inactive | 50 (≈ 102 µM) |
| CN1CCN(c2cc3ncnc(Sc4nnc(-c5cccnc5)o4)c3cc2NC(=O)NCCc2ccccc2)CC1 | inactive | 25 (≈ 44 µM) | inactive | 6.25 (≈ 11 µM) | inactive | 12.5 (≈ 22 µM) | inactive | 50 (≈ 88.1 µM) |
| Cc1ccccc1NC(=S)Nc1ccc2ncnc(Sc3nnc(-c4cccnc4)o3)c2c1 | inactive | 50 (≈ 106 µM) | inactive | 75 (≈ 159 µM) | inactive | 25 (≈ 53 µM) | inactive | 100 (≈ 212 µM) |
| CN[C@@H]1[C@H](O[C@H]2[C@H](O[C@H]3[C@H](O)[C@@H](O)[C@H](N=C(N)N)[C@@H](O)[C@@H]3N=C(N)N)O[C@@H](C)[C@]2(O)C=O)O[C@@H](CO)[C@H](O)[C@H]1O [STREPTOMYCIN] | inactive | 6.25 (≈ 10.7 µM) | inactive | 6.25 (≈ 10.7 µM) | inactive | 3.12 (≈ 5.37 µM) | inactive | 3.12 (≈ 5.37 µM) |
| COc1ccccc1NC(=S)Nc1cc2c(Sc3nnc(-c4cccnc4)o3)ncnc2cc1N1CCN(C)CC1 | inactive | 25 (≈ 42.7 µM) | inactive | 12.5 (≈ 21.3 µM) | inactive | 25 (≈ 42.7 µM) | inactive | 50 (≈ 85.4 µM) |
| O=C(Nc1ccccc1)Nc1ccc2ncnc(Sc3nnc(-c4cccnc4)o3)c2c1 | inactive | 25 (≈ 56.6 µM) | inactive | 12.5 (≈ 28.3 µM) | inactive | 25 (≈ 56.6 µM) | inactive | 50 (≈ 113 µM) |
| Cc1ccc(NC(=O)Nc2ccc3ncnc(Sc4nnc(-c5cccnc5)o4)c3c2)cc1 | inactive | 75 (≈ 165 µM) | inactive | 12.5 (≈ 27.4 µM) | inactive | 50 (≈ 110 µM) | inactive | 12.5 (≈ 27.4 µM) |
| CN1CCN(c2cc3ncnc(Sc4nnc(-c5cccnc5)o4)c3cc2NC(=O)Nc2ccc(-c3ccccc3)cc2)CC1 | inactive | 100 (≈ 162 µM) | inactive | 25 (≈ 40.6 µM) | inactive | 50 (≈ 81.2 µM) | inactive | 25 (≈ 40.6 µM) |
| CN1CCN(c2cc3ncnc(Sc4nnc(-c5cccnc5)o4)c3cc2NC(=O)Nc2ccccc2)CC1 | inactive | 12.5 (≈ 23.2 µM) | inactive | 25 (≈ 46.3 µM) | inactive | 25 (≈ 46.3 µM) | inactive | 50 (≈ 92.7 µM) |
| Cc1ccc(NC(=S)Nc2cc3c(Sc4nnc(-c5cccnc5)o4)ncnc3cc2N2CCN(C)CC2)cc1 | inactive | 50 (≈ 87.8 µM) | inactive | 12.5 (≈ 21.9 µM) | inactive | 50 (≈ 87.8 µM) | inactive | 50 (≈ 87.8 µM) |
| S=C(Nc1cccc(Cl)c1)Nc1ccc2ncnc(Sc3nnc(-c4cccnc4)o3)c2c1 | inactive | 25 (≈ 50.8 µM) | inactive | 6.25 (≈ 12.7 µM) | inactive | 50 (≈ 102 µM) | inactive | 75 (≈ 152 µM) |
| Cc1cccc(NC(=S)Nc2cc3c(Sc4nnc(-c5cccnc5)o4)ncnc3cc2N2CCN(C)CC2)c1 | inactive | 25 (≈ 43.9 µM) | inactive | 50 (≈ 87.8 µM) | inactive | 25 (≈ 43.9 µM) | inactive | 100 (≈ 176 µM) |
| Cc1ccc(NC(=O)Nc2cc3c(Sc4nnc(-c5cccnc5)o4)ncnc3cc2N2CCN(C)CC2)cc1 | inactive | 12.5 (≈ 22.6 µM) | inactive | 25 (≈ 45.2 µM) | inactive | 50 (≈ 90.3 µM) | inactive | 50 (≈ 90.3 µM) |
| Cc1ccc(NC(=S)Nc2ccc3ncnc(Sc4nnc(-c5cccnc5)o4)c3c2)cc1 | inactive | 25 (≈ 53 µM) | inactive | 25 (≈ 53 µM) | inactive | 50 (≈ 106 µM) | inactive | 75 (≈ 159 µM) |
| O=C(Nc1ccc(-c2ccccc2)cc1)Nc1ccc2ncnc(Sc3nnc(-c4cccnc4)o3)c2c1 | inactive | 12.5 (≈ 24.2 µM) | inactive | 12.5 (≈ 24.2 µM) | inactive | 100 (≈ 193 µM) | inactive | 75 (≈ 145 µM) |
| CC1COc2c(N3CCN(C)CC3)c(F)cc3c(=O)c(C(=O)O)cn1c23 (centres undefined) [OFLOXACIN] | inactive | 0.125 (≈ 0.346 µM) | inactive | 0.25 (≈ 0.692 µM) | inactive | 0.125 (≈ 0.346 µM) | inactive | 10 (≈ 27.7 µM) |
